Laboratory results reported in patent publication US9540391B2, “Isomannide derivatives as inhibitors of soluble epoxide hydrolase” (SANOFI, priority 2013, dated 2017).
Counter-ions that a name gives are not always drawn.

Target: T1, recombinant sEH (Homo sapiens, UniProt P34913)
T1 construct: made in house; host or cells: Sf9 insect cells
T1 sequence (P34913 1-555): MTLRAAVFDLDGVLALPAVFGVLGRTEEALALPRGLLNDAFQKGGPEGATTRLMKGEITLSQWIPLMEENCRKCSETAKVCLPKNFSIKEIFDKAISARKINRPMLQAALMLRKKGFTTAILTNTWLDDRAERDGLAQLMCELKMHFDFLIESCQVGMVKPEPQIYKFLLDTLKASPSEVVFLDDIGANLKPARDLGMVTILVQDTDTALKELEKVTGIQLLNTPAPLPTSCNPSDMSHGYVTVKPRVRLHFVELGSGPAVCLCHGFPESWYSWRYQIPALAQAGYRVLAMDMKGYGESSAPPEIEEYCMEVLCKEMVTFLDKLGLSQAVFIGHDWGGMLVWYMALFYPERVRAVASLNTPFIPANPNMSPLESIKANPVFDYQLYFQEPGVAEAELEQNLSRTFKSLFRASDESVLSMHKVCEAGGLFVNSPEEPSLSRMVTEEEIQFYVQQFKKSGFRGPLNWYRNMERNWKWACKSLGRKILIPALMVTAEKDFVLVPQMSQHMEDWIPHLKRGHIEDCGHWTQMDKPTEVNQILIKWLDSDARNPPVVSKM
Assay: biochemical screening assay for inhibition of soluble epoxide hydrolase (fluorometric, Phome substrate)
How it was run: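 Reading fluorescence before substrate addition and after completion corrected for autofluorescence. Reaction: 5 μM Phome, 2 nM recombinant human sEH (Sf9-expressed), compound 0.0001–10 μM, 25 mM Hepes with 0.01% albumin, 15 min pre-incubation then 60 min at 30 °C; IC50 derived from % inhibition.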

Compound | IC50
O=C(NCc1ccc(F)cc1)N[C@H]1CO[C@H]2[C@@H]1OC[C@@H]2C#Cc1ccsc1 [Example 304, 1-(4-Fluoro-benzyl)-3-((3S,3aR,6S,6aR)-6-thiophen-3-ylethynyl-hexahydro-furo[3,2-b]furan-3-yl)-urea] | 279 nM
Cc1ncccc1O[C@H]1CO[C@H]2[C@@H]1OC[C@@H]2NC(=O)NCC1(C)CCCO1 (stereo partly drawn) [Example 209, 1-[(3S,3aR,6S,6aS)-6-(2-Methyl-pyridin-3-yloxy)-hexahydro-furo[3,2-b]furan-3-yl]-3-(2-methyl-tetrahydro-furan-2-ylmethyl)-urea] | 819 nM
Cc1ncccc1O[C@H]1CO[C@H]2[C@@H]1OC[C@@H]2NC(=O)NC1CCCC(C(F)(F)F)C1 (stereo partly drawn) [Example 90, 1-[(3S,3aR,6S,6aS)-6-(2-methyl-pyridin-3-yloxy)-hexahydro-furo[3,2-b]furan-3-yl]-3-(3-trifluoromethyl-cyclohexyl)-urea] | 1 nM
Cc1ncccc1O[C@H]1CO[C@H]2[C@@H]1OC[C@@H]2NC(=O)NC(C)c1ccc(F)cc1 (stereo partly drawn) [Example 214, 1-[1-(4-Fluoro-phenyl)-ethyl]-3-[(3S,3aR,6S,6aS)-6-(2-methyl-pyridin-3-yloxy)-hexahydro-furo[3,2-b]furan-3-yl]-urea] | 14 nM
O=C(NC1CCCCC1)N[C@H]1CO[C@H]2[C@@H]1OC[C@@H]2Oc1ccccc1CN1CCCCC1 [Example 135, 1-Cyclohexyl-3-[(3S,3aR,6S,6aS)-6-(2-piperidin-1-ylmethyl-phenoxy)-hexahydro-furo[3,2-b]furan-3-yl]-urea; trifluoroacetate] | 20 nM
O=C(NC1CCCCC1)N[C@H]1CO[C@H]2[C@@H]1OC[C@@H]2Sc1ncccn1 [Example 46, 1-Cyclohexyl-3-[(3S,3aR,6S,6aS)-6-(pyrimidin-2-ylsulfanyl)-hexahydro-furo[3,2-b]furan-3-yl]-urea] | 50 nM
CC(C)(C)Oc1ccc(O[C@H]2CO[C@H]3[C@@H]2OC[C@@H]3NC(=O)NC2CCCCC2)cc1 [Example 116, 1-[(3S,3aR,6S,6aS)-6-(4-tert-Butoxy-phenoxy)-hexahydro-furo[3,2-b]furan-3-yl]-3-cyclohexyl-urea] | 3 nM
Cc1cc(O[C@H]2CO[C@H]3[C@@H]2OC[C@@H]3NC(=O)NC2CCCCC2)cnc1Cl [Example 65, 1-[(3S,3aR,6S,6aS)-6-(6-Chloro-5-methyl-pyridin-3-yloxy)-hexahydro-furo[3,2-b]furan-3-yl]-3-cyclohexyl-urea] | 2 nM
COc1cccc(CNC(=O)N[C@H]2CO[C@H]3[C@@H]2OC[C@@H]3Oc2cccnc2C)n1 [Example 202, 1-(6-Methoxy-pyridin-2-ylmethyl)-3-[(3S,3aR,6S,6aS)-6-(2-methyl-pyridin-3-yloxy)-hexahydro-furo[3,2-b]furan-3-yl]-urea] | 345 nM
O=C(NCc1ccc(F)cc1)N[C@H]1CO[C@@H]2[C@@H]1OC[C@H]2C#Cc1ccccc1 [Example 288, 1-(4-Fluoro-benzyl)-3-[(3S,3aR,6R)-6-((S)-phenylethynyl)-hexahydro-furo[3,2-b]furan-3-yl]-urea] | 147 nM
O=C(NC1CCC(F)(F)CC1)N[C@H]1CO[C@H]2[C@@H]1OC[C@@H]2Oc1ccc(F)cc1 [Example 77, 1-(4,4-difluoro-cyclohexyl)-3-[(3S,3aR,6S,6aS)-6-(4-fluoro-phenoxy)-hexahydro-furo[3,2-b]furan-3-yl]-urea] | 17 nM
Cc1ncccc1O[C@H]1CO[C@H]2[C@@H]1OC[C@@H]2NC(=O)N[C@@H]1CCCC[C@H]1F [Example 274, 1-((1R,2R)-2-Fluoro-cyclohexyl)-3-[(3S,3aR,6S,6aS)-6-(2-methyl-pyridin-3-yloxy)-hexahydro-furo[3,2-b]furan-3-yl]-urea] | 14 nM
O=C(Nc1ccc(F)cc1)NC1COC2C(C#Cc3ccccc3)COC12 [Example 292, 1-(4-Fluoro-phenyl)-3-[(3S,3aR,6R)-6-((S)-phenylethynyl)-hexahydro-furo[3,2-b]furan-3-yl]-urea] | 46 nM
Cc1ncccc1O[C@H]1CO[C@H]2[C@@H]1OC[C@@H]2NC(=O)NC1(C)CCCCC1 [Example 249, 1-(1-Methyl-cyclohexyl)-3-[(3S,3aR,6S,6aS)-6-(2-methyl-pyridin-3-yloxy)-hexahydro-furo[3,2-b]furan-3-yl]-urea] | 73 nM
COCC1(NC(=O)N[C@H]2CO[C@H]3[C@@H]2OC[C@@H]3Oc2cccnc2C)CCCC1 [Example 210, 1-(1-Methoxymethyl-cyclopentyl)-3-[(3S,3aR,6S,6aS)-6-(2-methyl-pyridin-3-yloxy)-hexahydro-furo[3,2-b]furan-3-yl]-urea] | 144 nM
Cc1ncccc1O[C@H]1CO[C@H]2[C@@H]1OC[C@@H]2NC(=O)NCc1ccccc1OC(F)F [Example 188, 1-(2-Difluoromethoxy-benzyl)-3-[(3S,3aR,6S,6aS)-6-(2-methyl-pyridin-3-yloxy)-hexahydro-furo[3,2-b]furan-3-yl]-urea] | 1 nM
N#CC1COC2C(NC(=O)Nc3ccc(OCc4ccccc4)cc3)COC12 (stereo not shown) [Example 382] | 339 nM
O=C(Nc1ccc(C(F)(F)F)cc1)NC1COC2C(C#Cc3ccsc3)COC12 [Example 308, 1-((3S,3aR,6S,6aR)-6-Thio-phen-3-ylethynyl-hexahydro-furo[3,2-b]furan-3-yl)-3-(4-trifluoromethyl-phenyl)-urea] | 48 nM
O=C(NC1CCCCC1)N[C@H]1CO[C@H]2[C@@H]1OC[C@@H]2OC(=O)N1CCOCC1 [Example 4, morpholine-4-carboxylic acid (3S,3aS,6S,6aR)-6-(3-cyclohexyl-ureido)-hexahydro-furo[3,2-b]furan-3-yl ester] | 16 nM
O=C(NCc1ccc(F)cc1)NC1COC2C(CCc3ccccc3)COC12 [Example 356, 1-(4-Fluoro-benzyl)-3-[(3S,3aR,6R)-6-((S)-phenethyl)-hexahydro-furo[3,2-b]furan-3-yl]-urea] | 140 nM
Cc1ncccc1O[C@H]1CO[C@H]2[C@@H]1OC[C@@H]2NC(=O)NCC1CC(=O)N(C(C)C)C1 (stereo partly drawn) [Example 253, 1-(1-Isopropyl-5-oxo-pyrrolidin-3-ylmethyl)-3-[(3S,3aR,6S,6aS)-6-(2-methyl-pyridin-3-yloxy)-hexahydro-furo[3,2-b]furan-3-yl]-urea] | 792 nM
C[C@@H](NC(=O)N[C@H]1CO[C@H]2[C@@H]1OC[C@@H]2Oc1ccc(F)cc1)C1CCCCC1 [Example 165, 1-((R)-1-Cyclohexyl-ethyl)-3-[(3S,3aR,6S,6aS)-6-(4-fluoro-phenoxy)-hexahydro-furo[3,2-b]furan-3-yl]-urea] | 21 nM
COCC(NC(=O)N[C@H]1CO[C@H]2[C@@H]1OC[C@@H]2Oc1cccnc1C)c1ccnn1C (stereo partly drawn) [Example 211, 1-[2-Methoxy-1-(2-methyl-2H-pyrazol-3-yl)-ethyl]-3-[(3S,3aR,6S,6aS)-6-(2-methyl-pyridin-3-yloxy)-hexahydro-furo[3,2-b]furan-3-yl]-urea] | 1080 nM
O=C(Nc1ccc(F)cc1)NC1COC2C(C=Cc3ccccc3)COC12 [Example 328, 1-(4-Fluoro-phenyl)-3-[(3S,3aR,6R)-6-((S)-(Z)-styryl)-hexahydro-furo[3,2-b]furan-3-yl]-urea] | 98 nM
O=C(Nc1ccc(OCc2ccccc2)cc1)NC1COC2C(C=Cc3ccccc3)COC12 [Example 324, 1-(4-Benzyloxy-phenyl)-3-[(3S,3aR,6R)-6-((S)-(Z)-styryl)-hexa-hydro-furo[3,2-b]furan-3-yl]-urea] | 81 nM
